Measurements from article PMC11338008, “Development and validation of CYP26A1 inhibition assay for high-throughput screening” (Biotechnology journal, 2024).
Entries after “also recorded” stand apart in the source; their conditions may differ.

System: CYP26B1, CYP1A2, CYP3A4, CYP2C9, CYP2C19, CYP2D6
Experiment: Selectivity across other P450-Glo CYP assays (heatmap, Figure 5)
Details: compared with CYP26A1 assay
Description: The CYP26B1 assay was a custom assay prepared as described above except it contained recombinant human CYP26B1 co-expressed with POR in E. coli (Cypex/BioIVT, Dundee, Scotland, UK; catalog # CYP071) in place of the Cyp26a1 sequence. […] The luminescence signal in each well was measured using a ViewLux plate reader.

SMILES	activity pattern / selectivity across CYP assays, in words
CC(C)(C)C(=O)C(Oc1ccc(Cl)cc1)n1cncn1 (centres unmarked) [Triadimefon]	inhibitory effects in the CYP26A1 assay similar to their activity patterns on CYP26B1, CYP3A4, CYP2C9, and CYP2C19
CCCOC/C(=N\c1ccc(Cl)cc1C(F)(F)F)n1ccnc1 [Triflumizole]	inhibitory effects in the CYP26A1 assay similar to their activity patterns on CYP26B1, CYP3A4, CYP2C9, and CYP2C19
OC(Cn1cncn1)(Cn1cncn1)c1ccc(F)cc1F [Fluconazole]	inhibitory effects in the CYP26A1 assay similar to their activity patterns on CYP26B1, CYP3A4, CYP2C9, and CYP2C19
CCCN(CCOc1c(Cl)cc(Cl)cc1Cl)C(=O)n1ccnc1 [Prochloraz]	inhibitory effects in the CYP26A1 assay similar to their activity patterns on CYP26B1, CYP3A4, CYP2C9, and CYP2C19
CCC(CC)C(c1ccc(Nc2nc3ccccc3s2)cc1)n1cncn1 (centres unmarked) [R115866/Talarozole, Talarozole]	inhibitory effects in the CYP26A1 assay similar to their activity patterns on CYP26B1, CYP3A4, CYP2C9, and CYP2C19; also recorded: broad-spectrum inhibition across various CYP enzymes; also recorded: significant potency in both CYP26A1/B1 and CYP3A4 assays
